Assay results reported in patent publication US4678775A, “Method of controlling pests” (priority 1984, dated 1987).

Assays:
[1] = test system: cyclic AMP in intact nerve cords of tobacco hornworms; assay: Cyclic AMP content of intact tobacco hornworm nerve cords; type: cell-based; settings: 5 minutes
Procedure: After 5 minutes, the intact nerve cord was quickly treated to release all cyclic AMP which was present within the tissue.

[2] = test system: octopamine-sensitive adenylate cyclase; assay: Activation of octopamine-sensitive adenylate cyclase, firefly light organ broken cell preparation; type: biochemical, Photinus pyralis; settings: for Ka ratio to octopamine / Vmax (% OCT): Table 2, clonidines; for Vmax (% OCT): N.A. = no activity
[3] = test system: adenylate cyclase in nerve cord of tobacco hornworm; assay: Adenylate cyclase activation in broken cell preparations of tobacco hornworm nerve cord; type: biochemical, tobacco hornworm (Manducca sexta); settings: for activation of adenylate cyclase in nerve cord: FIG. 1
Procedure: Otherwise, the procedure is identical to that described above.
The tissue is homogenized (usually 15 mg/ml) as above in 6 mM Tris maleate, pH 7.4. […] This is done to cancel out the effects of dopamine and serotonin receptors which are usually present in nerve cord.
As detailed previously, the adenylate cyclase assay, either in the firefly or in other insect pest, is also used to identify a direct stimulator of adenylate cyclase.

[4] = test system: tobacco hornworms (Manducca sexta); assay: In vivo leaf test (antifeeding) on tomato leaves with tobacco hornworm larvae; settings: for % Leaf Remaining: Table 5, IBMX 0.1 g/100 ml; for Ki for inhibition of feeding by the larvae: applied to leaves; for rank order antifeeding effectiveness: based on the EC50 of the octopamine agonist, alone or +IBMX; for behaviour of larvae feeding on treated leaves: in vivo; for effect of addition of IBMX on antifeeding / pesticidal activity: with PDE inhibitor IBMX
[5] = test system: adenylate cyclase in the firefly lantern; assay: Direct activation of adenylate cyclase in firefly lantern (forskolin); type: biochemical, Photinus pyralis; settings: FIG. 2, firefly lantern
Description: The second type of pest controlling compounds (2) useable in the present compositions are direct stimulators of the pest enzyme adenylate cyclase. These compounds bypass the receptor, and interact with one or another of the associated catalytic or regulatory subunits of adenylate cyclase, thereby stimulating the formation of cyclic AMP. Suitable compounds can be determined from assay of pest adenylate cyclase as described above.
Specimens of Photinus pyralis were collected in summer, frozen on dry ice, and stored at -90°. […] For each experiment, a number of insects were thawed and maintained at 4° C. […]
Adenylate cyclase activation by test compounds was measured in test tubes containing (in 0.3 ml) 80 mM Tris-maleate, pH 7.4; 10 mM theophylline; 8 mM MgCl2; 0.1 mM GTP; 0.5 mM ethylene glycol bis(beta-aminoethyl ether)-N,N,N',N'-tetraacetic acid; 2 mM ATP; 0.06 ml of P2 fractions; and the various compounds to be tested. Prior experiments had determined that, under these conditions, octopamine-sensitive adenylate cyclase activity is optimized. […] Cyclic AMP in the supernatant was measured by protein-binding assay, according to the method of Brown et al., Adv. […] Protein concentration was determined by the method of Lowry et al., Journal of Biological Chemistry 193: 265-275 (1951). […]

[6] = Cyclic AMP analogue remaining after incubation with nerve cord homogenate; type: in vitro ADME, tobacco hornworm; settings: in vitro 4 hours; IBMX 0.1 mM; FIG. 7
Procedure: It has been previously shown, above, that PDE inhibition can increase the concentration of cyclic AMP in insect tissue. […] In order to do this, a fixed amount of butyl-benzylthio cyclic AMP was incubated in vitro for 4 hours in the presence of a tissue homogenated from tobacco hornworm nerve cord. In some tubes, IBMX (0.1 mM) was added to inhibit PDE. After the incubation, the amount of butyl-benzylthio cyclic AMP remaining was measured by protein binding assay (Brown et al., supra), using a standard curve based upon butyl-benzylthio cyclic AMP.

[7] = target: T1, Beta1 and Beta2-adrenergic-stimulated adenylate cyclase in rat liver (Rattus norvegicus, UniProt P10608); assay: Adenylate cyclase stimulation in rat liver; type: biochemical
T1 construct: adenylate cyclase in rat heart and liver; from tissue; host or cells: rat liver
T1 sequence (P10608 whole entry): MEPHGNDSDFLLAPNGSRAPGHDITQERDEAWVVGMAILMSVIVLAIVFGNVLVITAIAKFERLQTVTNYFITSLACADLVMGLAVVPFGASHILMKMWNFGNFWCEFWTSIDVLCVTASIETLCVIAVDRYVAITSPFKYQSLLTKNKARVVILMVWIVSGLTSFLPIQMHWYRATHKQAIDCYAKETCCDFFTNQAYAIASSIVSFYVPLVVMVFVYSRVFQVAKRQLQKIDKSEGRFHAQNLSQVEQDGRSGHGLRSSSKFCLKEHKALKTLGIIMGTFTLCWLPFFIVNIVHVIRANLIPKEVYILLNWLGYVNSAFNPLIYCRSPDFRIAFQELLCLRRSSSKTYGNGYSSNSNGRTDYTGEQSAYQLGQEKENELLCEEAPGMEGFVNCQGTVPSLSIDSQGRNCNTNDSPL

[8] = target: T2, dopamine-sensitive adenylate cyclase in rat caudate nucleus (Rattus norvegicus, UniProt P18901); assay: Adenylate cyclase stimulation in rat caudate nucleus; type: biochemical
T2 construct: in the rat caudate nucleus; from tissue; host or cells: rat caudate nucleus
T2 sequence (P18901 whole entry): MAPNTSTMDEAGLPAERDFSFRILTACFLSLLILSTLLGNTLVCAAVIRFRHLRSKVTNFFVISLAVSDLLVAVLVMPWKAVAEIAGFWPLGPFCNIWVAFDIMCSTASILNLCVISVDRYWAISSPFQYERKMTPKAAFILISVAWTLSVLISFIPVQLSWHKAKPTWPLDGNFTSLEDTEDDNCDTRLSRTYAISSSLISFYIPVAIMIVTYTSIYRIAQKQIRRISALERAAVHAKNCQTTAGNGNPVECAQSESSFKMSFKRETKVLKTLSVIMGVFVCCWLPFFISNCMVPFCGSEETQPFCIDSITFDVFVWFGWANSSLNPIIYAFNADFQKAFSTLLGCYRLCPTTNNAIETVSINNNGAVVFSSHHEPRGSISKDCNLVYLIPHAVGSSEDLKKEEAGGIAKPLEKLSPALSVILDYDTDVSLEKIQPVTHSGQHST

[9] = test system: isolated tails of Photinus males; assay: Stimulation of light production after injection into transected, isolated firefly tails; type: in vivo; settings: for EC50 for stimulated light emission: injected into isolated tails
[10] = test system: octopamine-sensitive adenylate cyclase; settings: Nathanson et al. 1981; cited from earlier work
[11] = target: T3, Beta1 and Beta2-adrenergic-stimulated adenylate cyclase in rat heart (Rattus norvegicus, UniProt P18090); assay: Adenylate cyclase stimulation in rat heart; type: biochemical
T3 construct: adenylate cyclase in rat heart and liver; from tissue; host or cells: rat heart
T3 sequence (P18090 whole entry): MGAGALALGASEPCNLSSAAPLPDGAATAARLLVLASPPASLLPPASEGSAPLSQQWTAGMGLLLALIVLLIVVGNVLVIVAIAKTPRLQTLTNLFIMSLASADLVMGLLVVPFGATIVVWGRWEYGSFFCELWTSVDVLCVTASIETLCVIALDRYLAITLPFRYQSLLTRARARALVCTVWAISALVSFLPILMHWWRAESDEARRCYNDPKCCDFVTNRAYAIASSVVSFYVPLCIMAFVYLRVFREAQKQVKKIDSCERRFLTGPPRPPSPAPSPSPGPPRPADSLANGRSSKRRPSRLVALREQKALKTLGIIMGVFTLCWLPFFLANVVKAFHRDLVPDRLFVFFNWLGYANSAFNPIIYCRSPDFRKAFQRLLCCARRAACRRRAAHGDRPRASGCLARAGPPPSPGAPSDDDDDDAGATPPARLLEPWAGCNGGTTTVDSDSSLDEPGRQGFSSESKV

[12] = test system: Beta1 and Beta2-adrenergic-stimulated adenylate cyclase in rat heart; assay: Adenylate cyclase stimulation in rat heart; type: biochemical
[13] = test system: Beta1 and Beta2-adrenergic-stimulated adenylate cyclase in rat liver; assay: Adenylate cyclase stimulation in rat liver; type: biochemical
[14] = FIG. 3, hornworm larvae nerve cord

**Q.** With `Cc1cc(Cl)ccc1N=C1NCCN1` [NC 7, 2-(2-methyl, -4-chlorophenylimino)imidazolidine] as the compound, how does the “Cyclic AMP Content (Fold-increase over Control)” value ([1]; +0.1 mM IBMX) read?
**A.** 13.9 ± 3.0 Fold-increase over Control

**Q.** What about the “Cyclic AMP Content (Fold-increase over Control)” value ([1]; -IBMX) of the same compound?
**A.** 2.2 ± 0.2 Fold-increase over Control

**Q.** What about the octopamine potency ratio [2] of the same compound?
**A.** 9.8

**Q.** And the “Ka ratio to octopamine” value [2]?
**A.** 9.8

**Q.** And the “Vmax (% OCT)” value [2]?
**A.** 68 % OCT

**Q.** What about the “activation of adenylate cyclase in nerve cord” value [3] of the same compound?
**A.** potent activators

**Q.** What about the “% Leaf Remaining” value ([4]; agonist 10^-2 gm/100 ml) of the same compound?
**A.** 85%

**Q.** And the “Ki for inhibition of feeding by the larvae” value [4]?
**A.** 0.01 mg/leaf

**Q.** What about the “rank order antifeeding effectiveness” value [4] of the same compound?
**A.** DDCDM+IBMX=NC7+IBMX>Octopamine+IBMX=DDCDM alone>NC7 alone>octopamine alone

**Q.** And the “behaviour of larvae feeding on treated leaves” value [4]?
**A.** tremors, hyperactivity, and leaf walk-off behavior

**Q.** What about the “effect of addition of IBMX on antifeeding / pesticidal activity” value [4] of the same compound?
**A.** substantial increases in the potency

**Q.** For `C=C[C@@]1(C)CC(=O)[C@]2(O)[C@@]3(C)[C@@H](O)CCC(C)(C)[C@@H]3[C@H](O)[C@H](OC(C)=O)[C@@]2(C)O1` [forskolin], which Ka ratio [5] is on record?
**A.** 0.22

**Q.** What about the Vmax [5] of the same compound?
**A.** 100%

**Q.** And the Ka ratio [3, 14]?
**A.** 0.20

**Q.** What about the Vmax [3, 14] of the same compound?
**A.** about 100%

**Q.** And the antifeeding activity ([4]; compound itself, in words)?
**A.** has antifeeding activity

**Q.** What about the “effect of addition of IBMX on antifeeding / pesticidal activity” value [4] of the same compound?
**A.** enhanced

**Q.** Which “amount of cyclic AMP analogue present after 4 hours, with IBMX versus without” value [6] does the source give for `CCCCNc1ncnc2c1nc(SCc1ccccc1)n2[C@@H]1O[C@@H]2COP(=O)(O)O[C@H]2[C@H]1O` [n-butylaminobenzylthio cyclic AMP, 6-n-butylamino-8-benzylthio-cyclic AMP, reference compound] here?
**A.** more than doubled

**Q.** What about the antifeeding activity ([4]; concentration of 1%, absence of IBMX) of the same compound?
**A.** showed antifeeding activity

**Q.** And the “effect of addition of IBMX on antifeeding / pesticidal activity” value [4]?
**A.** increased by addition of IBMX

**Q.** What does the source list for `NCC(O)c1ccc(O)cc1` (racemic) [octopamine, reference compound]?
**A.** stimulation of adenylate cyclase [7]: neither octopamine nor NC5 were active; stimulation of adenylate cyclase [8]: neither octopamine nor NC5 caused any significant enzyme stimulation; activation of adenylate cyclase in nerve cord [3]: potent activators; EC50 for stimulated light emission [9]: about 5 nmoles/tail; Ki for inhibition of feeding by the larvae [4]: 0.5 mg/leaf; rank order antifeeding effectiveness [4]: DDCDM+IBMX=NC7+IBMX>Octopamine+IBMX=DDCDM alone>NC7 alone>octopamine alone; behaviour of larvae feeding on treated leaves [4]: tremors, hyperactivity, and leaf walk-off behavior; pesticidal activity ([4]; no IBMX): little pesticidal activity; effect of addition of IBMX on antifeeding / pesticidal activity [4]: considerably elevated both cyclic AMP content and pesticidal activity

**Q.** With `CNC=Nc1ccc(Cl)cc1C` [DCDM, N-demethylchlordimeform] as the compound, how does the “potency relative to octopamine as partial agonist of light organ octopamine-stimulated adenylate cyclase” value [10] read?
**A.** about six-fold more potent than octopamine

**Q.** With `CC(C)NC[C@H](O)c1ccc(O)c(O)c1` [(-)-isoproterenol, reference compound] as the compound, how does the “stimulation of adenylate cyclase” value [7] read?
**A.** potently stimulates

**Q.** Which results are given for `CCc1cccc(CC)c1N=C1NCCN1` [NC 5, 2-(2,6-diethylphenylimino)imidazolidine]?
**A.** Ka (half-maximal activation) [2]: about 1 μM; Ka fold lower than that due to octopamine [2]: 20 fold; maximal stimulation relative to octopamine [2]: equal to that caused by octopamine; Ka ratio to octopamine [2]: 19.0; Vmax (% OCT) [2]: 97 % OCT; activity as an octopamine antagonist ([2]; combinations of octopamine and NC5): no activity as an octopamine antagonist; lowest concentration with significant stimulation ([2]; unit not given): 3×10^-8; stimulation of adenylate cyclase [11]: almost completely inactive; inhibition of basal adenylate cyclase activity [12]: In none of the three mammalian tissues did NC5 cause any inhibition; inhibition of basal adenylate cyclase activity [13]: In none of the three mammalian tissues did NC5 cause any inhibition; stimulation of adenylate cyclase [7]: neither octopamine nor NC5 were active; inhibition of basal adenylate cyclase activity [8]: In none of the three mammalian tissues did NC5 cause any inhibition; stimulation of adenylate cyclase [8]: neither octopamine nor NC5 caused any significant enzyme stimulation; EC50 for stimulated light emission [9]: about 0.3 nmoles; times as potent as octopamine ([9]; light emission EC50): more than 16 times; % Leaf Remaining ([4]; agonist 3 × 10^-1 gm/100 ml): 70%; effect of addition of IBMX on antifeeding / pesticidal activity [4]: substantial increases in the potency
